Tests used:
ΔF508-CFTR = target: T1, ΔF508-CFTR (Homo sapiens, UniProt P13569, DEL508-508); assay: Membrane potential optical assay (fluorescent voltage sensing dyes, FLIPR III), identification of potentiator compounds (Protocol 1); assay type: cell-based
T1 construct: expressed in transfected cells
Source text: The assay utilizes fluorescent voltage sensing dyes to measure changes in membrane potential using a fluorescent plate reader (e.g., FLIPR III, Molecular Devices, Inc.) as a readout for increase in functional ΔF508-CFTR in NIH 3T3 cells. The driving force for the response is the creation of a chloride ion gradient in conjunction with channel activation by a single liquid addition step after the cells have previously been treated with compounds and subsequently loaded with a voltage sensing dye.
To identify potentiators of ΔF508-CFTR, a double-addition HTS assay format was developed. This HTS assay utilizes fluorescent voltage sensing dyes to measure changes in membrane potential on the FLIPR III as a measurement for increase in gating (conductance) of ΔF508 CFTR in temperature-corrected ΔF508 CFTR NIH 3T3 cells. The driving force for the response is a Cl^− ion gradient in conjunction with channel activation with forskolin in a single liquid addition step using a fluorescent plate reader such as FLIPR III after the cells have previously been treated with potentiator compounds (or DMSO vehicle control) and subsequently loaded with a redistribution dye.
Bath Solution #1: (in mM) NaCl 160, KCl 4.5, CaCl2 2, MgCl2 1, HEPES 10, pH 7.4 with NaOH.
Chloride-free bath solution: Chloride salts in Bath Solution #1 (above) are substituted with gluconate salts. […]

[1] = Physical and chemical stability of Compound 3 in aqueous methylcellulose formulations; assay type: physicochemical; details: for physical stability of the HCl salt form in suspension: 0.5% methylcellulose/0.5% polysorbate 80 suspension vehicle, T(0), XRPD and 1H NMR
Description: A 100 mL stock solution of 0.5% by weight methylcellulose was prepared by stirring 0.5 g of methylcellulose with 99.5 g of purified water until completely dissolved (approximately 24 hours). The appropriate amount of Compound 3 HCl salt based on free base was weighed and transferred to a scintillation vial. The desired amount of 0.5% methylcellulose stock solution for making a 6 mg/mL based on free base (6.48 mg/mL based on HCl salt) was transferred into the vial and sonicated for 20 minutes and homogenized for approximately 5 minutes.
Methylcellulose (0.5 g) was combined with 99.0 g of purified water in a beaker and stirred in a 60-70° C. water bath for 30′-1 hr. The solution was stirred in a 0° C. ice/water bath for another 30′ or until clear. Polysorbate 80 (0.5 g) was added and stirring at room temperature followed for 30′-1 hr or until a clear solution was obtained.
The appropriate amount of Compound 3 HCl salt based on free base was weighed and transferred to a scintillation vial. The desired amount of 0.5% methylcellulose and 0.5% polysorbate 80 stock solution for making a 6 mg/mL based on free base (6.48 mg/mL based on HCl salt) was transferred into the vial and sonicated for 20 minutes with alternate stirring for 1-2 minutes. The solution was homogenized for approximately 1-2 minutes.

T1 sequence (P13569 with tags, fused parts or gaps DEL508-508): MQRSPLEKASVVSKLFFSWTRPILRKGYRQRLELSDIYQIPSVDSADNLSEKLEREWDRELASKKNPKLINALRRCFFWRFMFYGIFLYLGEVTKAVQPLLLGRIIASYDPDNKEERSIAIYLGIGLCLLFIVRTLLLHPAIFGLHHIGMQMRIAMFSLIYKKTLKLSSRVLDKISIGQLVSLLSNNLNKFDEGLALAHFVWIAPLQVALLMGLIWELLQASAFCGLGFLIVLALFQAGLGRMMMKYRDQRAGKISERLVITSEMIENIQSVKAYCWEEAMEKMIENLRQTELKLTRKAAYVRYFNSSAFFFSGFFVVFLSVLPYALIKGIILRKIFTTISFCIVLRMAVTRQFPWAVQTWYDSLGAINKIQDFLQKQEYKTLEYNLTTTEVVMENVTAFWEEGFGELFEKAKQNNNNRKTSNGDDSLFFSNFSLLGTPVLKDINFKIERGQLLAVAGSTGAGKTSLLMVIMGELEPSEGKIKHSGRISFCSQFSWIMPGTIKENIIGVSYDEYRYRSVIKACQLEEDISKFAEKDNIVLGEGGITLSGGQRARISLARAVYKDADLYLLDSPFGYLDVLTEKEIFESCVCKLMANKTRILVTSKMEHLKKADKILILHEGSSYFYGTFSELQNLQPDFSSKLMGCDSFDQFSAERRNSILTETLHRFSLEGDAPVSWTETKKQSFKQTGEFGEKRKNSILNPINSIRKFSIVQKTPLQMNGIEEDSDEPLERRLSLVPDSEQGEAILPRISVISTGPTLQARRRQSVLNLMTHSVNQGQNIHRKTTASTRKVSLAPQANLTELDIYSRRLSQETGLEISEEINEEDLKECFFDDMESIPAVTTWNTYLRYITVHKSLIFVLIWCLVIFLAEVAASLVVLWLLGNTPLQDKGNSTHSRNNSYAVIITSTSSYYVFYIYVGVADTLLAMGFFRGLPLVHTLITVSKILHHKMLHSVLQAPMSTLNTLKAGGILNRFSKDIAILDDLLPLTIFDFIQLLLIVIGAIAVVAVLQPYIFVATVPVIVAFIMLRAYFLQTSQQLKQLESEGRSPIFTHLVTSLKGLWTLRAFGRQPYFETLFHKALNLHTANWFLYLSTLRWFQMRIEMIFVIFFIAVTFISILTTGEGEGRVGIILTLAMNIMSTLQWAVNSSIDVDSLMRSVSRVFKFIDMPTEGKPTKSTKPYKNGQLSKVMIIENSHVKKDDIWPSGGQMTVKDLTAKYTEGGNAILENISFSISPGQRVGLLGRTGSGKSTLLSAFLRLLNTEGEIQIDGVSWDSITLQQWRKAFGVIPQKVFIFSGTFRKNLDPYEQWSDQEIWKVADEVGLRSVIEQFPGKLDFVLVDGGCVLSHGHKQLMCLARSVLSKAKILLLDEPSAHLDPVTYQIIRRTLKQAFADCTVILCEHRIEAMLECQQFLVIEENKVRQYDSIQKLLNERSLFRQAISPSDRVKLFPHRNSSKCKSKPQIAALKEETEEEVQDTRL

CC(C)(C)c1cc(C(C)(C)C)c(NC(=O)c2c[nH]c3ccccc3c2=O)cc1O [Compound 1, N-[2,4-bis(1,1-dimethylethyl)-5-hydroxyphenyl]-1,4-dihydro-4-oxoquinoline-3-carboxamide]
Emax (ΔF508-CFTR; Compound 1, potentiator activity, Protocol 1, read-out: % Activity (relative efficacy)): 25 to 100%

O=C(Nc1ccc(N2C3CCC2[C@H](O)C3)cc1C(F)(F)F)c1c[nH]c2cccc(C(F)(F)F)c2c1=O (stereo partly drawn) [Compound 2-5]
% Efficacy (ΔF508-CFTR; compounds of Formula II, 100% efficacy is the maximum response obtained with 4-methyl-2-(5-phenyl-1H-pyrazol-3-yl)phenol): +++ (“+++” if efficacy was calculated to be greater than 100%)

Cc1ccc(NC(=O)C2(c3ccc4c(c3)OC(F)(F)O4)CC2)nc1-c1cccc(C(=O)O)c1.Cl [Compound 3 HCl salt, 3-(6-(1-(2,2-Difluorobenzo[d][1,3]dioxol-5-yl)cyclopropanecarboxamido)-3-methylpyridin-2-yl)benzoic acid.HCl salt]
physical stability of the HCl salt form in suspension [1]: not physically stable | physical stability of the HCl salt form in suspension ([1]; listed as HCl salt): quickly converted to Compound 3 Form I

Cc1ccc(NC(=O)C2(c3ccc4c(c3)OC(F)(F)O4)CC2)nc1-c1cccc(C(=O)O)c1 [Compound 3 Form I, 3-(6-(1-(2,2-difluorobenzo[d][1,3]dioxol-5-yl)cyclopropanecarboxamido)-3-methylpyridin-2-yl)benzoic acid]
chemically stable (time) ([1]; room temperature, 0.5% methylcellulose/0.5% polysorbate 80 formulation vehicle, no sign of chemical degradation): at least 24 hrs | physically and chemically stable (time) ([1]; room temperature, methylcellulose formulation (0.5% by weight), no sign of chemical degradation): at least 24 hrs

From patent US20160022665A2, “Pharmaceutical Compositions and Administrations Thereof” (Vertex Pharmaceuticals Incorporated, priority 2012, published 2016)
